# Laboratory results from US6855730B2, “3-methylidenyl-2-indolinone modulators of protein kinase” (Sugen, Inc., priority 1998, dated 2005).
# Columns and labels:
# Format in all cases: cell-based
# A431 cells = assay: A431 growth assay (2% FBS); conditions: Homo sapiens, A-431, read-out: A431 growth (2% FBS) IC50
# [1] = target: T1, 3T3 cell line genetically engineered to express human EGF-R (Homo sapiens, UniProt P00533); assay: EGF-induced BrdU incorporation assay; conditions: read-out: BrdU EGF driven IC50
# T1 construct: expressed in transfected cells; host or cells: 3T3
# Protocol: The cellular/catalytic assays described herein are performed in an ELISA format. The general procedure is as follows: a compound is introduced to cells expressing the test kinase, either naturally or recombinantly, for a selected period of time after which, if the test kinase is a receptor, a ligand known to activate the receptor is added. The cells are lysed and the lysate is transferred to the wells of an ELISA plate previously coated with a specific antibody recognizing the substrate of the enzymatic phosphorylation reaction. Non-substrate components of the cell lysate are washed away and the amount of phosphorylation on the substrate is detected with an antibody specifically recognizing phosphotyrosine compared with control cells that were not contacted with a test compound. The cellular/biologic assays described herein measure the amount of DNA made in response to activation of a test kinase, which is a general measure of a proliferative response. The general procedure for this assay is as follows: a compound is introduced to cells expressing the test kinase, either naturally or recombinantly, for a selected period of time after which, if the test kinase is a receptor, a ligand known to activate the receptor is added. After incubation at least overnight, a DNA labeling reagent such as Bromodeoxyuridine (BrdU) or 3H-thymidine is added. The amount of labeled DNA is detected with either an anti-BrdU antibody or by measuring radioactivity and is compared to control cells not contacted with a test compound. […]
# Protocol • (1) Cells are seeded at 8000 cells/well in 10% CS, 2mM Gin in DMEM, in a 96 well plate. Cells are incubated overnight at 37° C. in 5% CO2. • (2) After 24 hours, the cells are washed with PBS, and then are serum starved in serum free medium (0% CS DMEM with 0.1% BSA) for 24 hours. • (3) On day 3, ligand (EGF, 2 nM, prepared in DMEM with 0.1% BSA) and test compounds are added to the cells simultaneously. The negative control wells receive serum free DMEM with 0.1% BSA only, the positive control cells receive the ligand (EGF) but no test compound. Test compounds are prepared in serum free DMEM with ligand in a 96 well plate, and serially diluted for 7 test concentrations. • (4) After 20 hours of ligand activation, diluted BrdU labeling reagent (1:100 in DMEM, 0.1% BSA) is added and the cells are incubated with BrdU (final concentration=10 μM) for 1.5 hours. • (5) After incubation with labeling reagent, the medium is removed by decanting and tapping the inverted plate on a paper towel. FixDenat solution is added (50 μl/well) and the plates are incubated at room temperature for 45 minutes on a plate shaker. • (6) The FixDenat solution is thoroughly removed by decanting and tapping the inverted plate on a paper towel. Milk is added (5% dehydrated milk in PBS, 200 μl/well) as a blocking solution and the plate is incubated for 30 minutes at room temperature on a plate shaker. • (7) The blocking solution is removed by decanting and the wells are washed once with PBS. Anti-BrdU-POD solution (1:100 dilution in PBS, 1% BSA) is added (100 μ/well) and the plate is incubated for 90 minutes at room temperature on a plate shaker. • (8) The antibody conjugate is thoroughly removed by decanting and rinsing the wells 5 times with PBS, and the plate is dried by inverting and tapping on a paper towel. • (9) TMB substrate solution is added (100 μl/well) and incubated for 20 minutes at room temperature on a plate shaker until color development is sufficient for photometric detection. • (10) The absorbance of the samples are measured at 410 nm (in “dual wavelength” mode with a filter reading at 490 nm, as a reference wavelength) on a Dynatech ELISA plate reader.
# SKOV3 cells = assay: SKOV3 growth assay (2% FBS); conditions: Homo sapiens, SK-OV-3, read-out: SKOV3 growth (2% FBS) IC50
IC50 (A431 cells),IC50 [1],IC50 (SKOV3 cells),SMILES
12.5 µM,23.3 µM,15 µM,"COc1ccc(/C=C2/C(=O)Nc3ccc(F)cc32)cc1C1CCCC1 [Example 11, 3-(3-Cyclopentyl-4-methoxybenzylidene)-5-fluoro-1,3-dihydroindol-2-one]"
7.9 µM,30.6 µM,10.1 µM,"COc1ccc(/C=C2/C(=O)Nc3ccccc32)cc1C1CCCCC1 [Example 12, 3-(3-Cyclohexyl-4-methoxybenzylidene)-1,3-dihydroindol-2-one]"
9 µM,26.6 µM,21.3 µM,"COc1ccc(/C=C2/C(=O)Nc3ccc(Br)cc32)cc1-c1ccccc1 [Example 13, 5-Bromo-3-(6-methoxybiphenyl-3-ylmethylene)-1,3-dihydroindol-2-one]"
4.8 µM,7.8 µM,7 µM,"CC1(C)CCc2cc(/C=C3/C(=O)Nc4ccc(Cl)cc43)ccc2O1 [Example 15, 5-Chloro-3-(2,2-dimethyl-chroman-6-ylmethylene)-1,3-dihydroindol-2-one]"
4.1 µM,6.4 µM,5.9 µM,"CC(=O)Nc1ccc2c(c1)NC(=O)/C2=C/c1ccc(OCCN2CCOCC2)c(C2CCCCC2)c1 [Example 16, N-{3-[3-Cyclohexyl-4-(2-morpholin-4-ylethoxy)-benzylidene]-2-oxo-2,3-dihydro-1H-indol-6-yl}-acetamide]"
4.3 µM,7.4 µM,6.1 µM,"COc1ccc2c(c1)/C(=C\c1cc(C(C)C)c(OC)c(C(C)C)c1)C(=O)N2 [Example 17, 3-(3,5-Diisopropyl-4-methoxybenzylidene)-5-methoxy-1,3-dihydroindol-2-one]"
0.6 µM,> 50 µM,1 µM,"COc1ccc(/C=C2/C(=O)Nc3cc(NC(C)=O)ccc32)cc1-c1ccsc1 [Example 18, N-[3-(4-Methoxy-3-thiophene-3-ylbenzylidene)-2-oxo-2,3-dihydro-1H-indol-6-yl]-acetamide]"
4.3 µM,9.3 µM,5.9 µM,"COc1c(C(C)C)cc(/C=C2/C(=O)Nc3ccc(C)cc32)cc1C(C)C [Example 19, 3-(3,5-Diisopropyl-4-methoxybenzylidene)-5-methyl-1,3-dihydroindol-2-one]"
29.5 µM,30 µM,35.5 µM,"COc1c(C(C)C)cc(/C=C2/C(=O)Nc3ccc(N)cc32)cc1C(C)C [Example 20, 5-Amino-3-(3,5-diisopropyl-4-methoxy-benzylidene)-1,3-dihydroindol-2-one]"
15.3 µM,8 µM,13 µM,"COc1c(C)cc(/C=C2/C(=O)Nc3ccc(Cl)cc32)cc1C [Example 21, 5-Chloro-3-(4-methoxy-3,5-dimethylbenzylidene)-1,3-dihydroindol-2-one]"
14.5 µM,32.9 µM,17.8 µM,"CC1(C)CCc2cc(/C=C3/C(=O)Nc4ccc(F)cc43)ccc2O1 [Example 23, 3-(2,2-Dimethylchroman-6-ylmethylene)-5-fluoro-1,3-dihydroindol-2-one]"
4.5 µM,7.5 µM,6.5 µM,"CC(C)c1cc(/C=C2/C(=O)Nc3ccc(Cl)cc32)cc(C(C)C)c1OCCN1CCOCC1 [Example 24, 5-chloro-3-[3,5-diisopropyl-4-(2-morpholin-4-ylethoxy)-benzylidene]-1,3-dihydroindol-2-one]"
3 µM,> 50 µM,5.4 µM,"COc1ccc(/C=C2/C(=O)Nc3ccc(CCN4CCOCC4)cc32)cc1-c1ccsc1 [Example 26, 3-(4-Methoxy-3-thiophen-3-ylbenzylidene)-5-(2-morpholin-4-yl-ethyl)-1,3-dihydroindol-2-one]"
6.4 µM,26.8 µM,5.1 µM,"COc1cc(C)c(C=C2C(=O)Nc3cc(NC(C)=O)ccc32)cc1C(C)C [Example 27, N-[3-(5-Isopropyl-4-methoxy-2-methyl-benzylidene)-2-oxo-2,3-dihydro-1H-indol-6-yl]-acetamide]"
5.6 µM,15.2 µM,7.9 µM,"COc1ccc(C=C2C(=O)Nc3ccccc32)cc1-c1cccc(NC(C)=O)c1 [Example 29, N-[2′-Methoxy-5′-(2-oxo-1,2-dihydroindol-3-ylidenemethyl)-biphenyl-3-yl]-acetamide]"
9.9 µM,30.3 µM,16 µM,"COc1cc(C)c(/C=C2/C(=O)Nc3ccc(F)cc32)cc1C(C)C [Example 30, 5-Fluoro-3-(5-isopropyl-4-methoxy-2-methyl-benzylidene)-1,3-dihydroindol-2-one]"
0.3 µM,38.6 µM,0.4 µM,"COc1ccc(/C=C2/C(=O)Nc3cc(NC(C)=O)ccc32)cc1-c1cccs1 [Example 31, N-[3-(4-Methoxy-3-thiophen-2-ylbenzylidene)-2-oxo-2,3-dihydro-1H-indol-6-yl]-acetamide]"
13.4 µM,28.1 µM,16.2 µM,"COc1ccc(/C=C2/C(=O)Nc3ccccc32)cc1-c1ccsc1 [Example 35, 3-(4-Methoxy-3-thiophen-3-ylbenzylidene)-1,3-dihydroindol-2-one]"
> 25 µM,31 µM,> 25 µM,"COc1cc(C)c(/C=C2/C(=O)Nc3ccc(Br)cc32)cc1C(C)C [Example 36, 5-Bromo-3-(5-isopropyl-4-methoxy-2-methyl-benzylidene)-1,3-dihydroindol-2-one]"
9.2 µM,16.2 µM,9.6 µM,"COc1cc(/C=C2/C(=O)Nc3ccccc32)c(-c2cccs2)cc1OC [Example 39, 3-(4,5-Dimethoxy-2-thiophen-2-ylbenzylidene)-1,3-dihydroindol-2-one]"
14.2 µM,28.6 µM,22.5 µM,"CC(=O)Nc1ccc2c(c1)NC(=O)/C2=C/c1ccc(OCCN2CCOCC2)c(-c2cccs2)c1 [Example 40, N-{3-[4-(2-Morpholin-4-ylethoxy)-3-thiophen-2-ylbenzylidene]-2-oxo-2,3-dihydro-1H-indol-6-yl}-acetamide]"
5.5 µM,45.7 µM,7.7 µM,"CCOc1cccc(-c2cc(C=C3C(=O)Nc4ccccc43)ccc2OC)c1 [Example 46, 3-(3′-Ethoxy-6-methoxybiphenyl-3-ylmethylene)-1,3-dihydroindol-2-one]"
40.4 µM,> 50 µM,46.9 µM,"COc1ccc(/C=C2/C(=O)Nc3ncccc32)cc1C1CCCC1 [Example 47, 3-(3-Cyclopentyl-4-methoxybenzylidene)-1,3-dihydropyrrolo[2,3-b]pyridin-2-one]"
20.7 µM,24.1 µM,20.6 µM,"COc1cc(C=C2C(=O)Nc3ccccc32)c(-c2ccccc2OC)cc1OC [Example 49, 3-(4,5,2′-Trimethoxybiphenyl-2-ylmethylene)-1,3-dihydroindol-2-one]"
5.8 µM,12.3 µM,4 µM,"CC(C)c1cc(/C=C2/C(=O)Nc3ccc(Br)cc32)cc(C(C)C)c1OCCN1CCOCC1 [Example 57, 5-Bromo-3-[3,5-diisopropyl-4-(2-morpholin-4-ylethoxy)benzylidene]-1,3-dihydroindol-2-one]"
10.5 µM,27.5 µM,22 µM,"CCOc1cccc(-c2cc(OC)c(OC)cc2/C=C2/C(=O)Nc3ccccc32)c1 [Example 58, 3-(3′-Ethoxy-4,5-dimethoxybiphenyl-2-ylmethylene)-1,3-dihydroindol-2-one]"
